Key:
Assay in all cases: PTP1B and TCPTP Inhibition Assay
Details in all cases: pH 6.3; 22 °C
[1] = biological target: T1, Tyrosine-protein phosphatase non-receptor type 1 [1-298] (Homo sapiens, UniProt P18031)
T1 construct: 1-298
T1 sequence (P18031 whole entry): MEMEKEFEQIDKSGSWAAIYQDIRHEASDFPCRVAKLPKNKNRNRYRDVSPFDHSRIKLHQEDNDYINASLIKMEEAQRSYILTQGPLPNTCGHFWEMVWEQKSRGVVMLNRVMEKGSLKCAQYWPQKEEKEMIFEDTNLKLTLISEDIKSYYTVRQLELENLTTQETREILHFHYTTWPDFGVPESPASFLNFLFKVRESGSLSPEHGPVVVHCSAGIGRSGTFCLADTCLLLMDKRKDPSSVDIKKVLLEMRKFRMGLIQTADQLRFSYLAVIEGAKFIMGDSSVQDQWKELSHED

[2] = biological target: T2, Tyrosine-protein phosphatase non-receptor type 2 (Homo sapiens, UniProt P17706)
T2 sequence (P17706 whole entry): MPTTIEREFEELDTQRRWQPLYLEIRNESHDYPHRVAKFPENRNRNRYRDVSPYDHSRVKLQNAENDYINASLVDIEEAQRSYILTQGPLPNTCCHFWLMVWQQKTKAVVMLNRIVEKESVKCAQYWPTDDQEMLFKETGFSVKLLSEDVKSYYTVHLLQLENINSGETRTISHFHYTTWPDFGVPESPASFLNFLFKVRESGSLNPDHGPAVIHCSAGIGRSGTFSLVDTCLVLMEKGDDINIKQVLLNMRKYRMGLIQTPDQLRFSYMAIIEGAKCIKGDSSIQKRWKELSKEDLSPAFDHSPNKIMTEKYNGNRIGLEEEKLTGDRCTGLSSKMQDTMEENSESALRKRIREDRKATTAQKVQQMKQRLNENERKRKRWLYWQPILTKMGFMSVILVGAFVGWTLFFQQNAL

[3] = biological target: Tyrosine-protein phosphatase non-receptor type 2 [V121L] (Homo sapiens, UniProt P17706, V121L)
Chain of Tyrosine-protein phosphatase non-receptor type 2 [V121L] (P17706 as listed by the source V121L): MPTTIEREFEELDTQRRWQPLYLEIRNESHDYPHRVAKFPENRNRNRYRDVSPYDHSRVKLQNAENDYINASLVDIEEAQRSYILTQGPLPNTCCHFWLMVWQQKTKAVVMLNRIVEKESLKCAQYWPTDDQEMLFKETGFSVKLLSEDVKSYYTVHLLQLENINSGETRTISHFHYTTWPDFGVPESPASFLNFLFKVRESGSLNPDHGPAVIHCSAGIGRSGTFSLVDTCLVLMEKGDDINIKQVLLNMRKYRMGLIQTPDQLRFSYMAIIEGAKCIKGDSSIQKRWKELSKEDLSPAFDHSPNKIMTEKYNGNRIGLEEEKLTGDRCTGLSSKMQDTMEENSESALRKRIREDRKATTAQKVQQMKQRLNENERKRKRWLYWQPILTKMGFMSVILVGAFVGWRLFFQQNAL

[4] = biological target: Tyrosine-protein phosphatase non-receptor type 1 [L119V] (Homo sapiens, UniProt P18031, L119V)
Chain of Tyrosine-protein phosphatase non-receptor type 1 [L119V] (P18031 1-298 L119V): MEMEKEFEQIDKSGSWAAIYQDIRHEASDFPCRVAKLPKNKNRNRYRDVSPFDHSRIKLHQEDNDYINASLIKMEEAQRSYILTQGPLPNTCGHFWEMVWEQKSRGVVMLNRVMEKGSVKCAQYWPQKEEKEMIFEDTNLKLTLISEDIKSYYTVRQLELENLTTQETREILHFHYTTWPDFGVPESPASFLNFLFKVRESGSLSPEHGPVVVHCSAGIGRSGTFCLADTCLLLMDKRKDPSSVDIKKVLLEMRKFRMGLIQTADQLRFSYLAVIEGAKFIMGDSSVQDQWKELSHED

Which IC50 [1] does the source give for `Cc1noc(-c2ccc(C(C/C=C/c3ccccc3)(Cc3ccc(C(F)(F)P(=O)(O)O)cc3)C(=O)c3ccc(F)cc3)cc2)n1` (stereo not drawn) [[difluoro({4-[3-(4-fluorophenyl)-2-[4-(3-methyl-1,2,4-oxadiazol-5-yl)phenyl]-3-oxo-2-[(2E)-3-phenylprop-2-en-1-yl]propyl]phenyl})methyl]phosphonic acid] here?
Its IC50 is 163 nM.

What about the IC50 [2] of the same molecule?
The IC50 was 1600 nM.

What about the IC50 [3] of the same molecule?
The IC50 was 138 nM.

And the IC50 [4]?
The IC50 was 1900 nM.

Which results are given for `O=P(O)(O)C(F)(F)c1ccc(CC(C/C=C/c2ccccc2)(c2ccccc2)n2nnc3ccccc32)cc1` (stereo not drawn) [({4-[(4E)-2-(1H-1,2,3-benzotriazol-1-yl)-2,5-diphenylpent-4-en-1-yl]phenyl}difluoromethyl)phosphonic acid]?
IC50 [1]: 109 nM; IC50 [2]: 95 nM

With `COC(=O)c1ccc([C@@](C/C=C/c2ccccc2)(Cc2ccc(C(F)(F)P(=O)(O)O)cc2)n2nnc3ccccc32)cc1` [({4-[(4E)-2-(1H-1,2,3-benzotriazol-1-yl)-2-[4-(methoxycarbonyl)phenyl]-5-phenylpent-4-en-1-yl]phenyl}difluoromethyl)phosphonic acid] as the molecule, how does the IC50 [2] read?
Its IC50 is 87 nM.

What about the IC50 [3] of the same molecule?
The IC50 was 24 nM.

From BindingDB's records for doi:10.1074/jbc.M511827200 (Merck Frosst Center For Therapeutic Research, 2006)
